Experimental data: a compilation of properties of binary mixtures (doi:10.1021/ie303238h)

Assay: xn = mol fraction of the nth substance listed
Conditions: 298.15 K, 100 kPa

With CC[n+]1ccn(C)c1.O=S(=O)([N-]S(=O)(=O)C(F)(F)F)C(F)(F)F + CCOS(=O)(=O)[O-].CC[n+]1ccn(C)c1 the viscosity (x1 = 0.2008) was 90.6 mPa·s, the viscosity (x1 = 0.4356) was 72.5 mPa·s and the viscosity (x1 = 0.494) was 67.8 mPa·s. For the same molecule, the viscosity (x1 = 0.5982) was 58.31 mPa·s, the viscosity (x1 = 0.6996) was 50.07 mPa·s and the viscosity (x1 = 0.8) was 43.24 mPa·s. It also gave a viscosity (x1 = 0.9025) of 37.67 mPa·s and a viscosity (x1 = 1) of 32.55 mPa·s.
Work on CCCC[n+]1ccn(C)c1.CCOS(=O)(=O)[O-] + CC[n+]1ccn(C)c1.O=S(=O)([N-]S(=O)(=O)C(F)(F)F)C(F)(F)F yielded a viscosity (x2 = 0.1009) of 212.4 mPa·s, a viscosity (x2 = 0.2031) of 172.4 mPa·s and a viscosity (x2 = 0.2951) of 139.9 mPa·s. The viscosity (x2 = 0.4027) was 109.3 mPa·s, the viscosity (x2 = 0.5989) was 69.7 mPa·s and the viscosity (x2 = 0.8024) was 47.55 mPa·s. The viscosity (x2 = 0.8996) was 39.59 mPa·s.
In the case of CC[n+]1ccn(C)c1.O=S(=O)([N-]S(=O)(=O)C(F)(F)F)C(F)(F)F + CCCC[n+]1ccn(C)c1.CCOS(=O)(=O)[O-], the viscosity (x1 = 1) is reported as 32.55 mPa·s.
